Experiments:
[1] = target: PI3Kalpha (Homo sapiens (Human), UniProt P42336); test: Inhibition of PI3Kalpha-induced PIP-2 phosphorylation (filter-binding assay); format: biochemical; details: 33P-ATP, p85alpha/His-p110alpha, read-out: IC50 PI3Kα
Summary of the method: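 Radiometric filter-binding assay: PI3Kα (25 ng/well) preincubated 20 min at room temperature with compound and PIP2-containing lipid vesicles plus phosphotyrosine PDGFRβ peptide. Reaction started with cold ATP (1 μM final) and [33P]-ATP and run 120 min at room temperature; filter-captured radioactivity counted, IC50 from duplicate dilution series.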

[2] = system: H460 cells; test: alamarBlue H460 cell assay (antiproliferative/cytotoxicity); format: cell-based; details: NCI-H460; H460 human lung carcinoma cells
Summary of the method: (§1)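 After overnight attachment at 37 °C, cells receive a ten-point, 1:3 dilution series starting at 10 μM final, in duplicate, with untreated medium/DMSO controls. Following 5-6 days, alamarBlue is incubated 8 h and emission at 590 nm recorded.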

[3] = system: MB453 cells; test: alamarBlue MB453 cell assay (antiproliferative/cytotoxicity); format: cell-based; details: Homo sapiens; MDA MB 453 breast cancer cell line
Summary of the method: as §1

[4] = system: U87 cells; test: U87 cell assay (antiproliferative/cytotoxicity); format: cell-based; details: U-87MG human glioblastoma cells
Summary of the method: as §1

[5] = system: MCF7 cells; test: alamarBlue MCF7 cell assay (antiproliferative/cytotoxicity); format: cell-based; details: MCF7 human breast cancer cell line
From the text: The H460, MB453, U87, MCF7 and BT474 alamarBlue cell assays provide EC50 values indicative of the antiproliferative or cytotoxic effects of the compounds to respectively the H460 (human non small cell line cancer), MB-453 (breast cancer cell line), U87 (glioblastoma cell line), MCF7 (breast cancer cell line) and BT474 (breast cancer cell line). As known in the field, antiproliferative or cytotoxic effect against this cell lines would be expected to be indicative of activity in treating lung, breast and brain cancers. See R. Marone R et al. Biochim. Biophys. Acta. 2008 January; 1784(1):159-85. S. Yaguchi et al., J. Natl. Cancer Inst. 2006 Apr. 19; 98(8):545-56.
Method Type: Antiproliferative/Cytotoxicity
alamarBlue® is designed to provide a rapid and sensitive measure of cell proliferation and cytotoxicity in various human and animal cell lines. The assay is based on the reduction of alamarBlue in the reducing environment of living (metabolically active) cells. In the presence of added cytotoxic or antiproliferative compounds, the innate metabolic activity ceases.
AlamarBlue is soluble and stable in culture medium. Measurements are made fluorometrically by exciting at 530-560 nm and measuring emission at 590 nm. In reporting percent alamarBlue reduction by monitoring fluorescence, data are expressed as fluorescence emission intensity units as a function of time of incubation.
3. Equipment • 96-well plates, flat bottom (Falcon, Cat. No.: 353072) • 96-well plates, U-shaped (Costar, Cat. No.: 3799) • CO2-Incubator • Microplate Reader, Spectramax Plus, Molecular Devices 4. Typical Procedure • Day 0: Seed 3000 BT-474 cells (IMDM/5% FCS, 1% NEAA, 1% Sodiumpyruvat) in 150 μl medium into a 96-well plate, flat bottom (include mediumblank). Incubate plates at 37° C. in a CO2 incubator overnight. • Day 1: Dilute compounds to a concentration 40 μM->1:3 in medium, 10 dilution steps, in 96-well plates. • Add 50 μl per well of each dilution (total volume per well 200 μl; final conc. of cpds: 10 μM->1:3). If required, test further dilutions. • All concentrations are tested in duplicates. • Controls: Cells w/o cpd. (+50 μl medium/DMSO). • Cells are incubated with compounds for 5-6 days. • Day 6 or 7: Add 25 μl of alamarBlue solution to each well and incubate for 8 hours at 37° C. Measure fluorescence by exciting at 530-560 nm and measuring emission at 590 nm. 5. Evaluation • Subtract average value for medium blank from sample readings • Calculate EC50 using GraphPad Prism (Fifty)

[6] = system: BT474 cells; test: alamarBlue BT474 cell assay (antiproliferative/cytotoxicity); format: cell-based; details: BT-474 human breast cancer cell line
Summary of the method: as §1

Chain of PI3Kalpha (P42336 whole entry): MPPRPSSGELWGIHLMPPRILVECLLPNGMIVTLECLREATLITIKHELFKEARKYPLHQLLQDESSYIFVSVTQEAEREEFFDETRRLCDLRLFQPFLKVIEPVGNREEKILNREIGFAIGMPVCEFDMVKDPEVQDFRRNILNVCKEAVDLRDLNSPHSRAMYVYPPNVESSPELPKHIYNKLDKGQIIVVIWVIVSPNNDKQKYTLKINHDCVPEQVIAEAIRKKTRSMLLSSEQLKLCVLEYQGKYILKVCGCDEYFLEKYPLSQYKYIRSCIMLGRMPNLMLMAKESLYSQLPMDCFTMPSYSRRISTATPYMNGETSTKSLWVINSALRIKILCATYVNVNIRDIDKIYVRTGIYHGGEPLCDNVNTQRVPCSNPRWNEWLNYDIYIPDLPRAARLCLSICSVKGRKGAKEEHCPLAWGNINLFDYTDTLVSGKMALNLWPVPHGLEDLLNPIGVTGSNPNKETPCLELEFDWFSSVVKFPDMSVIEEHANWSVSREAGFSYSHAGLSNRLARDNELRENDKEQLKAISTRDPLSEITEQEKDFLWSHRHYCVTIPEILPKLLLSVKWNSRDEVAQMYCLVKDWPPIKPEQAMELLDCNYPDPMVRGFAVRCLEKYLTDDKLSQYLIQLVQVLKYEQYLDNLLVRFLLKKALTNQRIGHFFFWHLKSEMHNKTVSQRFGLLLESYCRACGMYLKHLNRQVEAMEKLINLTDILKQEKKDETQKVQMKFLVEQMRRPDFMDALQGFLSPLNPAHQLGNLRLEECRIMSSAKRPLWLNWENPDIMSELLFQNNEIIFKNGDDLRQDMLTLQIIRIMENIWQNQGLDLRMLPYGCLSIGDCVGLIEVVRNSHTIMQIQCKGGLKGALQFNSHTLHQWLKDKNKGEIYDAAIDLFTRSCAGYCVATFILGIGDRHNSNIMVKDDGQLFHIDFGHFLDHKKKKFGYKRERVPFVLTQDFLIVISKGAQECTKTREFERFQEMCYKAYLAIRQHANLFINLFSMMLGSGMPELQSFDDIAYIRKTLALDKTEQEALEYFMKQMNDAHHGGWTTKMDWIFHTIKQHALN

SMILES	IC50 [1] [nM]	EC50 [2] [nM]	EC50 [3] [nM]	EC50 [4] [nM]	EC50 [5] [nM]	EC50 [6] [nM]
Cc1ncc(C#Cc2c(C)ncnc2N(C)C2CCOCC2)cc1NS(=O)(=O)c1ccc(F)cc1F [Example I-16, 2,4-Difluoro-N-(2-methyl-5-{4-methyl-6-[methyl-(tetrahydro-pyran-4-yl)-amino]-pyrimidin-5-ylethynyl}-pyridin-3-yl)-benzenesulfonamide]	0.86	226	397	839	118	309
CC(=O)N1CCN(c2ncnc(C)c2C#Cc2cnc(C)c(NS(=O)(=O)c3ccc(F)cc3F)c2)CC1 [Example I-17, N-{5-[4-(4-Acetyl-piperazin-1-yl)-6-methyl-pyrimidin-5-ylethynyl]-2-methyl-pyridin-3-yl}-2,4-difluoro-benzenesulfonamide]	0.79	965	521	1890	73	354
Cc1ncc(C#Cc2c(C)ncnc2N2CCN(C)CC2)cc1NS(=O)(=O)c1ccc(F)cc1F [Example I-18, 2,4-Difluoro-N-{2-methyl-5-[4-methyl-6-(4-methyl-piperazin-1-yl)-pyrimidin-5-ylethynyl]-pyridin-3-yl}-benzenesulfonamide]	1	269	418	358	72	221
Cc1ncnc(N2CCOCC2)c1C#Cc1cncc(NS(=O)(=O)c2ccccc2)c1 [Example I-19, N-[5-(4-Methyl-6-morpholin-4-yl-pyrimidin-5-ylethynyl)-pyridin-3-yl]-benzenesulfonamide]	0.46	319	387	707	56	373
Cc1ncnc(N2CCOCC2)c1C#Cc1cncc(NS(=O)(=O)c2ccc(F)cc2F)c1 [Example I-20, 2,4-Difluoro-N-[5-(4-methyl-6-morpholin-4-yl-pyrimidin-5-ylethynyl)-pyridin-3-yl]-benzenesulfonamide]	0.46	391	281	521	22	153
Cc1ncnc(N2CCOCC2)c1C#Cc1cncc(NS(=O)(=O)c2cccs2)c1 [Example I-21, Thiophene-2-sulfonic acid [5-(4-methyl-6-morpholin-4-yl-pyrimidin-5-ylethynyl)-pyridin-3-yl]-amide]	0.53	357	155	340	40	196
Cc1ncnc(N2CCOCC2)c1C#Cc1cncc(NS(=O)(=O)c2cccnc2)c1 [Example I-22, Pyridine-3-sulfonic acid [5-(4-methyl-6-morpholin-4-yl-pyrimidin-5-ylethynyl)-pyridin-3-yl]-amide]	0.8	4500	1420	10000	1380	3410
Cc1ncnc(N2CCOCC2)c1C#Cc1cncc(NS(=O)(=O)c2cnn(C)c2)c1 [Example I-23, 1-Methyl-1H-pyrazole-4-sulfonic acid [5-(4-methyl-6-morpholin-4-yl-pyrimidin-5-ylethynyl)-pyridin-3-yl]-amide]	0.66	2180	1040	1750	214	3500
CCc1ncnc(N2CCOCC2)c1C#Cc1cnc(OC)c(NS(=O)(=O)c2ccc(F)cc2F)c1 [Example I-25, N-[5-(4-Ethyl-6-morpholin-4-yl-pyrimidin-5-ylethynyl)-2-methoxy-pyridin-3-yl]-2,4-difluoro-benzenesulfonamide]	0.63	15	46	104	11	22
CCc1ncnc(N2CCOCC2)c1C#Cc1cnc(OC)c(NS(=O)(=O)c2ccccc2)c1 [Example I-26, N-[5-(4-Ethyl-6-morpholin-4-yl-pyrimidin-5-ylethynyl)-2-methoxy-pyridin-3-yl]-benzenesulfonamide]	0.59	21	61	97	9	28
CCc1ncnc(N(C)C)c1C#Cc1cnc(C)c(NS(=O)(=O)c2ccc(F)cc2)c1 [Example I-27, N-[5-(4-Dimethylamino-6-ethyl-pyrimidin-5-ylethynyl)-2-methyl-pyridin-3-yl]-4-fluoro-benzenesulfonamide]	1	791	1220	1620	10000	10000
CCc1ncnc(N2CCN(C3CC3)CC2)c1C#Cc1cnc(C)c(NS(=O)(=O)c2ccc(F)cc2)c1 [Example I-28, N-{5-[4-(4-Cyclopropyl-piperazin-1-yl)-6-ethyl-pyrimidin-5-ylethynyl]-2-methyl-pyridin-3-yl}-4-fluoro-benzenesulfonamide]	5	756	1850	14400	10000	10000
COc1ncc(C#Cc2c(C)ncnc2N2CCOCC2)cc1NS(=O)(=O)c1ccc(F)cc1F [Example I-29, 2,4-Difluoro-N-[2-methoxy-5-(4-methyl-6-morpholin-4-yl-pyrimidin-5-ylethynyl)-pyridin-3-yl]-benzenesulfonamide]	0.44	11	28	84	3	10
Cc1ncc(C#Cc2c(C)ncnc2N2CCOCC2)cc1NS(=O)(=O)c1ccc(F)cc1 [Example I-30, 4-Fluoro-N-[2-methyl-5-(4-methyl-6-morpholin-4-yl-pyrimidin-5-ylethynyl)-pyridin-3-yl]-benzenesulfonamide]	0.43	230	148	385	21	122
Cc1ncc(C#Cc2c(C)ncnc2N2CCOCC2)cc1NS(=O)(=O)c1cc(F)cc(F)c1 [Example I-31, 3,5-Difluoro-N-[2-methyl-5-(4-methyl-6-morpholin-4-yl-pyrimidin-5-ylethynyl)-pyridin-3-yl]-benzenesulfonamide]	0.97	509	245	609	50	178
CCc1ncnc(N(C)C)c1C#Cc1cnc(C)c(NS(C)(=O)=O)c1 [Example I-32, N-[5-(4-Dimethylamino-6-ethyl-pyrimidin-5-ylethynyl)-2-methyl-pyridin-3-yl]-methanesulfonamide]	8	1210	656	1290	617	1880
Cc1ncc(C#Cc2c(C)ncnc2N2CCOCC2)cc1NS(C)(=O)=O [Example I-37, N-[2-Methyl-5-(4-methyl-6-morpholin-4-yl-pyrimidin-5-ylethynyl)-pyridin-3-yl]-methanesulfonamide]	1	903	318	966	134	416
Cc1ncc(C#Cc2c(C)ncnc2N2CCOCC2)cc1NS(=O)(=O)C(C)C [Example I-38, Propane-2-sulfonic acid [2-methyl-5-(4-methyl-6-morpholin-4-yl-pyrimidin-5-ylethynyl)-pyridin-3-yl]-amide]	2	829	642	836	304	1220

Reference: patent US8598157B2, “5-alkynyl-pyridines” (Boehringer Ingelheim International GmbH, priority 2011, dated 2013)
